Assay results from US6355799B1, “Substituted benzene compounds, process for their preparation, and herbicidal and defoliant compositions containing them” (ISK Americas Incorporated, priority 1997, dated 2002).

Key:
Assay type in all cases: in vivo
[1] = tested on: redroot pigweed (Amaranthus retroflexus, AMARE); assay: Pre-emerge test, greenhouse herbicide activity screening; conditions: pre-emerge, rated 14 days after application, 0 = no damage, 100 = complete death
Method in brief: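 Sandy loam pots; pre-emerge: sown 1 d pre-spray, surface-watered after, then bottom-watered. Post-emerge: sown 8–21 d before, 2–3 leaf stage, + 0.25% v/v NIS, bottom-watered. Acetone, 187 l/ha track spray, 15–1000 g ai/ha. 0–100 injury score, day 14.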

[2] = tested on: field corn (Zea mays L., var. Dekalb 535, CORN); assay: Pre-emerge test, crop safety; conditions: pre-emerge, rated 14 days after application, 0 = no damage, 100 = complete death
Method in brief: (§1)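 Rating: 0–100 visual injury, 14 DAA. Application: acetone, 187 l/ha, 15–1000 g ai/ha, flat-fan track sprayer with nozzle 40–45 cm above soil or canopy. Post-emerge runs used 0.25% v/v surfactant on 2–3 leaf plants.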

[3] = tested on: upland rice (Oryza sp., var. Tebonnet, RICE); assay: Pre-emerge test, crop safety; conditions: pre-emerge, rated 14 days after application, 0 = no damage, 100 = complete death
Method in brief: as §1

[4] = tested on: velvetleaf (Abutilon theophrasti, ABUTH); assay: Pre-emerge test, greenhouse herbicide activity screening; conditions: pre-emerge, rated 14 days after application, 0 = no damage, 100 = complete death
Method in brief: (§2)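 Fourteen days after spraying, crop and weed injury was graded visually from 0, no effect, to 100, every plant dead. Test substances were dissolved in acetone and applied at 15–1000 g ai/ha with a flat-fan nozzle. Application was either pre-emergence, one day after sowing, or post-emergence at the 2–3 leaf stage.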

[5] = tested on: lambsquarters (Chenopodium album, CHEAL); assay: as above; conditions: pre-emerge, rated 14 days after application, 0 = no damage, 100 = complete death
Method in brief: as §2

[6] = tested on: johnsongrass (Sorghum halepense, SORHA); assay: as above; conditions: pre-emerge, rated 14 days after application, 0 = no damage, 100 = complete death
Method in brief: as §2

[7] = tested on: green foxtail (Setaria viridis, SETVI); assay: as above; conditions: pre-emerge, rated 14 days after application, 0 = no damage, 100 = complete death
Method in brief: as §2

[8] = tested on: large crabgrass (Digitaria sanguinalis, DIGSA); assay: as above; conditions: pre-emerge, rated 14 days after application, 0 = no damage, 100 = complete death
Method in brief: as §2

[9] = tested on: barnyardgrass (Echinochloa crus-galli, ECHCG); assay: as above; conditions: pre-emerge, rated 14 days after application, 0 = no damage, 100 = complete death
Method in brief: as §2

[10] = tested on: sicklepod (Cassia obtusifolia, CASOB); assay: as above; conditions: pre-emerge, rated 14 days after application, 0 = no damage, 100 = complete death
Method in brief: as §2

[11] = tested on: ivyleaf morningglory (Ipomoea hederacea, IPOHE); assay: as above; conditions: pre-emerge, rated 14 days after application, 0 = no damage, 100 = complete death
Method in brief: as §2

[12] = tested on: redroot pigweed (Amaranthus retroflexus, AMARE); assay: Post-emerge test, greenhouse herbicide activity screening; conditions: phytotoxicity rating 0-100 (0 no damage, 100 complete death), 14 days after application
Method in brief: (§3)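 Compounds in acetone were track-sprayed at 15–1000 g ai/ha: pre-emergence onto soil sown the previous day, then top-watered to incorporate and later bottom-watered; post-emergence onto 2–3 leaf plants with 0.25% v/v surfactant, bottom-watered only. Ratings on a 0–100 phytotoxicity scale were taken at day 14.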

[13] = tested on: velvetleaf (Abutilon theophrasti, ABUTH); assay: as above; conditions: phytotoxicity rating 0-100 (0 no damage, 100 complete death), 14 days after application
Method in brief: as §3

[14] = tested on: lambsquarters (Chenopodium album, CHEAL); assay: as above; conditions: phytotoxicity rating 0-100 (0 no damage, 100 complete death), 14 days after application
Method in brief: as §3

[15] = tested on: johnsongrass (Sorghum halepense, SORHA); assay: as above; conditions: phytotoxicity rating 0-100 (0 no damage, 100 complete death), 14 days after application
Method in brief: as §3

[16] = tested on: green foxtail (Setaria viridis, SETVI); assay: as above; conditions: phytotoxicity rating 0-100 (0 no damage, 100 complete death), 14 days after application
Method in brief: as §3

[17] = tested on: large crabgrass (Digitaria sanguinalis, DIGSA); assay: as above; conditions: phytotoxicity rating 0-100 (0 no damage, 100 complete death), 14 days after application
Method in brief: as §3

[18] = tested on: barnyardgrass (Echinochloa crus-galli, ECHCG); assay: as above; conditions: phytotoxicity rating 0-100 (0 no damage, 100 complete death), 14 days after application
Method in brief: as §3

[19] = tested on: sicklepod (Cassia obtusifolia, CASOB); assay: as above; conditions: phytotoxicity rating 0-100 (0 no damage, 100 complete death), 14 days after application
Method in brief: as §3

[20] = tested on: ivyleaf morningglory (Ipomoea hederacea, IPOHE); assay: as above; conditions: phytotoxicity rating 0-100 (0 no damage, 100 complete death), 14 days after application
Method in brief: as §3

[21] = tested on: field corn (Zea mays L., var. Dekalb 535, CORN); assay: Post-emerge test, crop safety; conditions: phytotoxicity rating 0-100 (0 no damage, 100 complete death), 14 days after application
Method in brief: as §2

[22] = tested on: upland rice (Oryza sp., var. Tebonnet, RICE); assay: Post-emerge test, crop safety; conditions: phytotoxicity rating 0-100 (0 no damage, 100 complete death), 14 days after application
Method in brief: as §2

Question: With `COc1c(Cl)cc(F)c(-n2c(=O)cc(C(F)(F)F)n(C)c2=O)c1NC(=O)C=C(C)C` [2-7] as the compound, how does the “Pre-emerge Herbicidal Activity AMARE (phytotoxicity rating, scale 0-100)” value ([1]; 63 g ai/ha) read?
Answer: 90

Question: What about the “Pre-emerge Herbicidal Activity AMARE (phytotoxicity rating, scale 0-100)” value ([1]; 250 g ai/ha) of the same compound?
Answer: 100

Question: And the “Pre-emerge crop damage CORN (phytotoxicity rating, scale 0-100)” value ([2]; 63 g ai/ha)?
Answer: 10

Question: And the “Pre-emerge crop damage CORN (phytotoxicity rating, scale 0-100)” value ([2]; 250 g ai/ha)?
Answer: 70

Question: And the “Pre-emerge crop damage RICE (phytotoxicity rating, scale 0-100)” value ([3]; 63 g ai/ha)?
Answer: 60

Question: And the “Pre-emerge crop damage RICE (phytotoxicity rating, scale 0-100)” value ([3]; 250 g ai/ha)?
Answer: 90

Question: What about the “Pre-emerge Herbicidal Activity ABUTH (phytotoxicity rating, scale 0-100)” value ([4]; 63 g ai/ha) of the same compound?
Answer: 100

Question: And the “Pre-emerge Herbicidal Activity ABUTH (phytotoxicity rating, scale 0-100)” value ([4]; 250 g ai/ha)?
Answer: 100

Question: And the “Pre-emerge Herbicidal Activity CHEAL (phytotoxicity rating, scale 0-100)” value ([5]; 63 g ai/ha)?
Answer: 100

Question: What about the “Pre-emerge Herbicidal Activity CHEAL (phytotoxicity rating, scale 0-100)” value ([5]; 250 g ai/ha) of the same compound?
Answer: 100

Question: And the “Pre-emerge Herbicidal Activity SORHA (phytotoxicity rating, scale 0-100)” value ([6]; 63 g ai/ha)?
Answer: 90

Question: What about the “Pre-emerge Herbicidal Activity SORHA (phytotoxicity rating, scale 0-100)” value ([6]; 250 g ai/ha) of the same compound?
Answer: 95

Question: And the “Pre-emerge Herbicidal Activity SETVI (phytotoxicity rating, scale 0-100)” value ([7]; 63 g ai/ha)?
Answer: 95

Question: And the “Pre-emerge Herbicidal Activity SETVI (phytotoxicity rating, scale 0-100)” value ([7]; 250 g ai/ha)?
Answer: 100

Question: And the “Pre-emerge Herbicidal Activity DIGSA (phytotoxicity rating, scale 0-100)” value ([8]; 63 g ai/ha)?
Answer: 95

Question: What about the “Pre-emerge Herbicidal Activity DIGSA (phytotoxicity rating, scale 0-100)” value ([8]; 250 g ai/ha) of the same compound?
Answer: 100

Question: And the “Pre-emerge Herbicidal Activity ECHCG (phytotoxicity rating, scale 0-100)” value ([9]; 63 g ai/ha)?
Answer: 40

Question: What about the “Pre-emerge Herbicidal Activity ECHCG (phytotoxicity rating, scale 0-100)” value ([9]; 250 g ai/ha) of the same compound?
Answer: 100

Question: What about the “Pre-emerge Herbicidal Activity CASOB (phytotoxicity rating, scale 0-100)” value ([10]; 63 g ai/ha) of the same compound?
Answer: 60

Question: What about the “Pre-emerge Herbicidal Activity CASOB (phytotoxicity rating, scale 0-100)” value ([10]; 250 g ai/ha) of the same compound?
Answer: 100

Question: What about the “Pre-emerge Herbicidal Activity IPOHE (phytotoxicity rating, scale 0-100)” value ([11]; 63 g ai/ha) of the same compound?
Answer: 70

Question: What about the “Pre-emerge Herbicidal Activity IPOHE (phytotoxicity rating, scale 0-100)” value ([11]; 250 g ai/ha) of the same compound?
Answer: 100

Question: And the “Post-emerge Herbicidal Activity AMARE” value ([12]; 63 g ai/ha)?
Answer: 10

Question: What about the “Post-emerge Herbicidal Activity AMARE” value ([12]; 250 g ai/ha) of the same compound?
Answer: 50

Question: What about the “Post-emerge Herbicidal Activity ABUTH” value ([13]; 63 g ai/ha) of the same compound?
Answer: 70

Question: And the “Post-emerge Herbicidal Activity ABUTH” value ([13]; 250 g ai/ha)?
Answer: 95

Question: And the “Post-emerge Herbicidal Activity CHEAL” value ([14]; 63 g ai/ha)?
Answer: 40

Question: What about the “Post-emerge Herbicidal Activity CHEAL” value ([14]; 250 g ai/ha) of the same compound?
Answer: 50

Question: What about the “Post-emerge Herbicidal Activity SORHA” value ([15]; 63 g ai/ha) of the same compound?
Answer: 0

Question: What about the “Post-emerge Herbicidal Activity SORHA” value ([15]; 250 g ai/ha) of the same compound?
Answer: 0

Question: And the “Post-emerge Herbicidal Activity SETVI” value ([16]; 63 g ai/ha)?
Answer: 0

Question: And the “Post-emerge Herbicidal Activity SETVI” value ([16]; 250 g ai/ha)?
Answer: 30

Question: And the “Post-emerge Herbicidal Activity DIGSA” value ([17]; 63 g ai/ha)?
Answer: 0

Question: And the “Post-emerge Herbicidal Activity DIGSA” value ([17]; 250 g ai/ha)?
Answer: 0

Question: What about the “Post-emerge Herbicidal Activity ECHCG” value ([18]; 63 g ai/ha) of the same compound?
Answer: 0

Question: What about the “Post-emerge Herbicidal Activity ECHCG” value ([18]; 250 g ai/ha) of the same compound?
Answer: 0

Question: What about the “Post-emerge Herbicidal Activity CASOB” value ([19]; 63 g ai/ha) of the same compound?
Answer: 0

Question: And the “Post-emerge Herbicidal Activity CASOB” value ([19]; 250 g ai/ha)?
Answer: 30

Question: What about the “Post-emerge Herbicidal Activity IPOHE” value ([20]; 63 g ai/ha) of the same compound?
Answer: 50

Question: And the “Post-emerge Herbicidal Activity IPOHE” value ([20]; 250 g ai/ha)?
Answer: 90

Question: What about the “Post-emerge Herbicidal Activity CORN (crop damage)” value ([21]; 63 g ai/ha) of the same compound?
Answer: 0

Question: And the “Post-emerge Herbicidal Activity CORN (crop damage)” value ([21]; 250 g ai/ha)?
Answer: 10

Question: And the “Post-emerge Herbicidal Activity RICE (crop damage)” value ([22]; 63 g ai/ha)?
Answer: 40

Question: What about the “Post-emerge Herbicidal Activity RICE (crop damage)” value ([22]; 250 g ai/ha) of the same compound?
Answer: 40
